# Key:
# [1] = tested on: P-gp; experiment: in vitro; settings: pig, LLC-PK1
# [2] = physchem; settings: PBS, pH 7
# [3] = tested on: P-gp; experiment: in vitro; settings: pig, LLC-PK1; remark: listed apart in the source
Structure (SMILES),Papp [1] [×10⁻⁶ cm/s],logD [2],Papp [3] [×10⁻⁶ cm/s]
NC(=O)c1cc(-c2ccc(F)cc2)c2ccc(CCc3ccncc3)cc2n1,21,2.88,24
NC(=O)c1cc(-c2ccc(F)cc2)c2ccc(CCc3cncnc3)cc2n1,30,2.31,28
NC(=O)c1cc(-c2ccc(F)cc2)c2ccc(Cc3ccncc3)cc2n1,–,2.7,–
NC(=O)c1cc(-c2ccc(F)cc2)c2ccc(CN3C(=O)CCC3=O)cc2n1,–,2.24,–
NC(=O)c1cc(-c2ccc(F)cc2)c2ccc(CCc3cccnc3)cc2n1,21,2.85,22
